{"source": "patent US10954258B2", "about": "“STAT3 dimerization inhibitors” (H. LEE MOFFITT CANCER CENTER AND RESEARCH INSTITUTE, INC., priority 2012, dated 2021)", "format_in_all_cases": "cell-based, human", "key": {"[1]": {"biological_target": "binding of FLAG-STAT3 to HA-STAT3 (Mus musculus, UniProt P42227)", "sequence (P42227 whole entry)": "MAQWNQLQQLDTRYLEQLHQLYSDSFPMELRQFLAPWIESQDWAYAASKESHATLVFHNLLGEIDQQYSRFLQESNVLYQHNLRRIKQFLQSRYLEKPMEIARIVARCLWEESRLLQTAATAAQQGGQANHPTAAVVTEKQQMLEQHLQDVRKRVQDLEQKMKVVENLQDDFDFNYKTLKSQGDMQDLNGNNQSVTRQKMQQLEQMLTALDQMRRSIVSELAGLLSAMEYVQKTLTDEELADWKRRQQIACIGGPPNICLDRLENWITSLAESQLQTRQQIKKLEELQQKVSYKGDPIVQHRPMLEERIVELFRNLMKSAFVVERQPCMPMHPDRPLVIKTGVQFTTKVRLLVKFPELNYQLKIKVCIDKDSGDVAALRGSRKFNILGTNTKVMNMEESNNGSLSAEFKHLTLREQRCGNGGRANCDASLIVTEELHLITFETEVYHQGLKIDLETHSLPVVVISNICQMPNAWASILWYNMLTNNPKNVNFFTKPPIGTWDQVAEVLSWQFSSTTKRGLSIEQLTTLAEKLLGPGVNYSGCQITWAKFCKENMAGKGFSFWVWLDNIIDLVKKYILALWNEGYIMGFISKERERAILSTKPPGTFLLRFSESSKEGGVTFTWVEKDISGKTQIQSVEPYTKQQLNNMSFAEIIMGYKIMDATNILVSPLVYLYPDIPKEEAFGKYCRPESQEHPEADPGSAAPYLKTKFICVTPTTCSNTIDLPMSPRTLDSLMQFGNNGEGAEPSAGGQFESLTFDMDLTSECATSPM", "assay": "co-immunoprecipitation of FLAG-STAT3 with HA-STAT3 in HEK293 cells", "conditions": "HEK293 cells co-expressing FLAG- and HA-STAT3; treated 4 h", "experimental": "HEK-293/FLAG-STAT3/HA-STAT3 cells were treated for 4 h with vehicle, S3I-1757, S3I-1756, Ac-G{pTYR}LPQTV-[…]-NH2 (SEQ ID NO:3) or Ac-GYLPQTV-[…]-NH2 (SEQ ID NO:4) and then lysed in 20 mM Tris-HCl (pH 7.4), 5 mM EDTA, 10 mM Na4P2O7, 100 mM NaF, 2 mM Na3VO4, 1% NP-40.1 mM PMSF and 10 mg/ml aprotinin. For EGF stimulation group, HEK-293/FLAG-STAT3/HASTAT3 cells were treated by 100 ng/ml EGF for 30 minutes before making cell lysate. Protein A or G agarose (EMD Millipore, Billerica, Mass., USA) was washed twice with PBS and restore to 50% slurry with PBS. 500 μg of lysate were pre-cleared by mixture of protein A and protein G-agarose for 1 h at 4° C. and then remove protein A and G-agarose by centrifuge at 1300 rpm for 3 minutes. And then 500 μg of lysate was immunoprecipitated with 50 ng of HA antibody overnight at 4° C. on shaker and then capture the immunocomplex by adding 100 μl Protein A and G agarose/sepharose bead slurry for 1 hour at 4° C. Samples were washed five times with lysis buffer and then boiled in 5×SDS-PAGE sample buffer and run on SDS-PAGE gel. Protein was transferred to nitrocellulose membrane and then blotted as described above for HA, FLAG, pSTAT3, EGFR, and STAT3.\nHowever, the FP assay only measured the ability of S3I-1757 to displace the 7 amino acid fluorescein-labelled GpYLPQTV phosphotyrosine peptide from the SH2 domain of STAT3 protein in vitro. Therefore, it was determined if the intracellular reciprocal binding of 2 full-length STAT3 proteins is inhibited. To this end, an assay was developed to measure directly STAT3-STAT3 dimerization in intact cells by cloning HA-tagged STAT3 and FLAG-tagged STAT3, generating HEK293 cells that stably co-express HA-STAT3 and FLAG-STAT3 and using these cells for coimmunoprecipitation and co-localization. […] This assay was validated by treating the FLAG-STAT3/HA-STAT3 HEK293 cells with tyrosine phosphorylated or nonphosphorylated GYLPQTV peptide fused to a membrane-translocating sequence (MTS) to allow cell uptake. […]"}, "[2]": {"system": "P-STAT3 in the nucleus of MDA-MB-468 cells", "assay": "P-STAT3 nuclear accumulation by immunofluorescence", "protocol": "MDA-MB-468 cells were plated at 4000 cells/well in 8-chamber slide. […] Cells were fixed, washed, and permeabilized as describe above. Specimens were then blocked in 1% bovine serum albumin (BSA) for 30 min and incubated with anti-pSTAT3 (Cell Signaling), antibody at 1:50 dilution at 4° C. overnight. Subsequently, cells were rinsed 4-5 times in PBS, incubated with Alexa Fluor secondary antibody for 1 hour at room temperature in the dark. Specimens were then washed 5 times with PBS, covered with cover slides with [sequence] mounting medium containing DAPI (Vector Lab, Inc., Burlingame, Calif.), and examined immediately under Zeiss Upright Fluorescence Microscope (Zeiss, Thornwood, N.Y., USA)."}, "[3]": {"system": "STAT3-DNA binding activity in MDA-MB-468 and A-549 cells", "assay": "STAT3-DNA binding filter plate assay on nuclear extracts", "conditions": "1, 2 or 4 hours", "experimental": "Nuclear extract preparation was carried out as described in Yu, et al., Science 1995; 269(5220):81-83. The STAT3-DNA binding filter plate assay was performed following the manual of the filter plate assay kit (Signosis, Sunnyvale, Calif.), as described for NFkB (Ying, et al., Blood 2011; 117(4):1301-1307). The TF Binding buffer was mixed with the STAT3 probe (biotin labeled STAT3 DNA binding sequence) and nuclear extract and incubated at 16° C. for 30 minutes to form the STAT3-DNA complex. The STAT3-DNA complex was then separated from free probe by using a filter plate. After several steps of binding and washing, bound STAT3 probe is retained on the filter in the corresponding well of Filer Plate and the free DNA probe is removed. The bound pre-labeled STAT3 probe was then eluted from the filter plate by centrifuge with elution buffer. Eluted probes were then hybridized into 96-well Hybridization Plate for quantitative analysis. The captured STAT3 probe was further detected by conjugation with streptavidin-HRP. The chemiluminescence of each well was detected by 2104 EnVisionR Multilabel Reader of PerkinElmer (Pekin Elmer, Waltham, Mass., USA) within 5 minutes after mixture with substrates. […]"}, "[4]": {"system": "MDA-MB-468, MDA-MB-231, H358, A549 cells", "assay": "MTT assay, cells with persistently activated STAT3", "conditions": "48 hours", "experimental": "MTT assay was performed exactly as described by Balasis, et al., Clin. Cancer Res. 2011; 17(9):2852-2862, to determine the effects of S3I-1757 on cell proliferation. Cells were plated in a 96 well tissue culture plate (2000 cells per well) and incubated for 12 hours. After incubation the cells were treated with vehicle S3I-1757 or S3I-1756 for 48 hours. After incubation, freshly prepared MTT (3 mg/ml) in 1×PBS was added to each well and incubated for 3 hours and the plate was read at 570 nm.\nSeveral cell lines were used, some with persistently Y705 phosphorylated STAT3 and others without (FIG. 9A). […] The effects of S3I-1757 on cancer cell anchorage-independent growth were next determined by soft-agar assay."}, "MDA-MB-468 cells": {"system": "MDA-MB-468 cells", "assay": "anchorage independent growth by soft agar assay, MDA-MB-468", "conditions": "constitutively active STAT3", "protocol": "Soft agar colony formation assays were performed in 12-well plate as described in Balasis, et al., Clin. Cancer. […] Colonies were allowed to grow for 3-4 weeks, and quantified by staining with 1 mg/mL MTT (Sigma, St. Louis, Mo., USA) overnight."}, "[5]": {"system": "MDA-MB-468, MDA-MB-231 and A-549 cells", "assay": "Matrigel invasion assay, cells with activated STAT3", "conditions": "48 hours", "protocol": "Invasion assay was performed in BD BioCoat™ Matrigel® Invasion Chamber in 24-well plates. A549, MDA-MB-468, MDA-MB-231 and H460 cells were seeded at 25,000 cells/insert in the top chamber over the Matrigel. The bottom chamber contains 20% FBS as the “chemoattractant.” Vehicle, S3I-1756, or S3I-1757 were added the following day. The cells were incubated for 48 hours, after which the cells in the top chamber were carefully removed and the filter membranes containing the invaded cells on the outside of the filter were fixed with methanol, stained with crystal violet and photographed."}, "[6]": {"system": "MDA-MB-468 cells transiently transfected with vector or STAT3C", "assay": "STAT3-C rescue: western blotting, MTT, migration and invasion", "text": "To this end, MDA-MB-468 were transfected cells with STAT3-C, then treated the cells with S3I-1757 and processed the cells for western blotting, cell growth, migration and invasion."}, "[7]": {"conditions": "MDA-MB-468 transfected with STAT3-C"}}, "data": [{"molecule": "O=C(O)c1cc(N(Cc2ccc(C3CCCCC3)cc2)C(=O)c2ccc(Oc3ccccc3)cc2)ccc1O", "note": "[Compound 20g, 5-(N-(4-Cyclohexylbenzyl)-4-phenoxybenzamido)-2-hydroxybenzoic acid]", "values": [{"measurement": "binding of FLAG-STAT3 to HA-STAT3 (co-immunoprecipitation)", "setting": "[1]", "value": "inhibited the binding of FLAG-STAT3 to HA-STAT3 in a concentration-dependent manner"}, {"measurement": "levels of p-STAT3 in the nucleus", "setting": "[2]; 2 hours and 4 hours", "value": "dramatically decreased"}, {"measurement": "P-STAT3 nuclear accumulation", "setting": "[2]; 18 hours, various concentrations", "value": "inhibited P-STAT3 nuclear accumulation in a concentration-dependent manner starting at 50 μM"}, {"measurement": "activated STAT3 in nuclear extracts capable of binding the STAT3 DNA binding probe", "setting": "[3]", "value": "contained less activated STAT3 capable of binding the STAT3 DNA binding probe"}, {"measurement": "anchorage-dependent proliferation by MTT, cells that harbor persistently activated STAT3", "setting": "[4]", "value": "inhibited in a dose dependent manner"}, {"measurement": "anchorage independent growth (soft agar), MDA-MB-468", "setting": "MDA-MB-468 cells", "value": "significantly inhibited"}, {"measurement": "invasion, MDA-MB-468, MDA-MB-231 and A-549", "setting": "[5]", "value": "inhibited invasion"}, {"measurement": "apoptosis induction (caspase 3, PARP)", "setting": "[6]; MDA-MB-468, FIG. 11A", "value": "induced activation of caspase 3 and PARP cleavage"}, {"measurement": "expression levels of BclxL, cyclin D1 and survivin", "setting": "[6]; MDA-MB-468, FIG. 11A", "value": "inhibited the expression levels of these proteins"}, {"measurement": "down regulation of BclxL, cyclin D1, survivin and apoptosis with ectopic STAT3-C", "setting": "[6]; [7]", "value": "ectopic expression of STAT3-C inhibited the ability of S3I-1757 to down regulate"}, {"measurement": "inhibition of migration and invasion, STAT3-C-transfected cells", "setting": "[6]; [7]", "value": "partially rescued"}, {"measurement": "proliferation/survival by MTT with STAT3-C", "setting": "[6]; MDA-MB-468 transfected with STAT3-C, FIG. 11B", "value": "STAT3-C inhibited S3I-1757 from inhibiting the proliferation/survival"}, {"measurement": "migration and invasion, vector-transfected cells", "setting": "[6]; MDA-MB-468 transfected with vector DNA", "value": "inhibited the migration and invasion"}]}]}
